Several values for one entry are separate records, joined by “and”; a condition that tells them apart may be missing. Identical values can stand only once.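 The compound was tested at five concentrations on cells cultured in 96-well plates, with a 48-hour exposure period. GI50: concentration for 50% inhibition of growth. TGI: total growth inhibition.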
What follows are compounds tested on MDA-MB-468 breast (assay: NCI tumour cell line growth inhibition, 48 h).

SMILES | GI50 | TGI
NCCNc1nc2ccc(F)cc2c2c(=O)c3cc(F)ccc3sc12 | 1790 nM | 3340 nM
Fc1cccc(-c2nc(-c3c[nH]c4ncccc34)cs2)c1 | > 100000 nM | > 100000 nM
O=C(Cc1ccc(-c2ccc(OCCN3CCOCC3)cc2)cn1)NCc1ccccc1 | 24.6 nM | > 3570 nM
CCN1C(=O)N[C@H]2[C@@H]3NC(=O)c4ccc(Cl)n4[C@@H]3C[C@]21O | 229 nM | 1080 nM
O=c1[nH]c(=O)n(C2CC(O)C(CO)O2)cc1F (configuration not stated) | 250 nM | 20600 nM
CCc1cccc2c3c(sc12)C(c1ccc(OC)cc1)C(C#N)=C(/N=C/c1ccc(Cl)cc1)O3 (configuration not stated) | 1930 nM | 6680 nM
CCC1C[N+]2=C(c3cc(OC)c(OC)cc3CC2)c2c1cc1n2CCc2cc(OC)c(OC)cc2-1 (configuration not stated) | 402 nM | 5490 nM
CCCCCCNC(=O)Oc1ccc(/C(=C(/C)c2ccccc2)c2ccc(OCCN3CCCCCC3)cc2)cc1 | 4900 nM | 19500 nM
Cc1ccc(Nn2c(SCC(=O)Nc3nc(-c4ccccc4)cs3)nc(C)c2C)cc1 | 1700 nM | 6670 nM
COC(=O)C(Br)(C(=O)OC)C(Br)C(Br)C(Br)c1ccccc1 (configuration not stated) | 1650 nM | 3530 nM
CCN(CC)CCOc1ccccc1-n1c(C)ccc1-c1ccccc1 | 10000 nM | 24400 nM
O=C(Oc1c(Cl)c(Cl)c(Cl)c(Cl)c1Cl)C1CCCN1C(=O)OCc1ccccc1 (configuration not stated) | 2900 nM | 12600 nM
COc1ccc2c(ccc3oc([N+](=O)[O-])cc32)c1 | 121 nM | 338 nM
Nc1ncc(-c2ccc3ncnc(N4CCc5cc(F)c(F)cc54)c3c2)cn1 | 1890 nM | 7790 nM
O=C(N/N=C\c1ccc([N+](=O)[O-])cc1)c1ccc2nc(-c3ccc(Br)cc3)[nH]c2c1 | 856 nM | 2060 nM
COc1ccc2cn3c4ccc(O)cc4[nH]c(=O)c3c2c1 | 195 nM | 678 nM
Cc1nc2sc(C(=O)Nc3cccc(Cl)c3C)c(N)c2cc1C(O)c1ccccc1 (configuration not stated) | 38.8 nM | 16900 nM
CN1CCC(n2cnc(-c3ccc(F)cc3)c2-c2ccnc(Nc3ccccc3)n2)CC1 | 3030 nM | 10400 nM
COc1ccc(-n2nc(C(=O)NCC(=O)Nc3nc4cc(OC)ccc4s3)c3ccccc3c2=O)cc1 | 846 nM | –
COc1ccc(-c2cncn2-c2ccc(-c3nc4cc(OC)c(OC)c(OC)c4s3)cc2)cc1N | 8600 nM | > 100000 nM
COc1cc(NC(=O)c2cc3ccccc3cc2O)c(OC)cc1Cl | 2510 nM | 8110 nM
O=C1Nc2cc(-c3ccc(O)cc3)ccc2/C1=C/c1ccc[nH]1 | 123 nM | 756 nM
NC1=CC(=O)C(=O)c2ccccc21 | 13200 nM | 28500 nM
CC1(C)CC(C(=O)OCCCCCCCCCCC[P+](c2ccccc2)(c2ccccc2)c2ccccc2)C(C)(C)N1O (configuration not stated) | 87.5 nM | 637 nM

SMILES | GI50 | TGI
CC(=O)OCCC/C(=C/c1cc2ccccc2c2ccccc12)[N+](=O)[O-] | 291 nM | 1060 nM
CCN1Cc2c(/C=C/c3ccccc3)nc3ccc(OC)cc3c2N(c2cccc(Cl)c2)C1 | 1900 nM | 3670 nM
Cc1cc(O)cc(-c2nn(C)cc2-c2cc(N3CCOCC3)nc(-c3cccnc3)n2)c1 | 1310 nM | 5630 nM
COC(=O)[C@]12CC[C@@H](C)[C@H](C)[C@@H]1C1=CC[C@@H]3[C@@]4(C)C(C=O)=C[C@@](C)(COC(=O)c5ccco5)C4=CC[C@@]3(C)[C@]1(C)CC2 | 54.2 nM | 1940 nM
O=C(C[n+]1ccn(CC(OCc2ccc(Cl)cc2Cl)c2ccc(Cl)cc2Cl)c1)c1ccc(F)cc1 (configuration not stated) | 732 nM | 2200 nM
O=C1CCCc2cc3c(cc21)CC1(C3)Cc2cc3c(cc2C1)C(=O)CCC3 | 2920 nM | 62700 nM
COc1ccc(C(=O)c2cc(C)c(OC)c(C)c2)c(OC)c1OC(=O)C(Cl)Cl | 398 nM | –
CSc1ccc(/C(=N/N=C(N)N)c2ccc(Cl)cc2)cc1 | 369 nM | 1500 nM
CC[C@H](C)C(=O)O[C@H]1C[C@@H](C)C=C2C=C[C@H](C)[C@H](CC[C@@H]3C[C@@H](O)CC(=O)O3)[C@H]21 | 2030 nM and 2840 nM | 14600 nM and 14800 nM
COc1ccc(/C=N/C2=NNC(C)(c3ccccc3O)N2C(Cc2c[nH]c3ccccc23)C(=O)O)cc1 (configuration not stated) | 2210 nM | 7340 nM
COC(=O)C[C@@H]1CC=CC(=O)/C1=C(O)/C=C/c1ccccc1 | 666 nM | 2150 nM
NC1=C(/C(N)=N/O)C(c2ccccc2)c2ccc3ccccc3c2O1 (configuration not stated) | 2130 nM | > 60000 nM
CN1CCN(c2ccc(NC(=O)c3cncnc3Nc3ccc4c(ccn4Cc4cccc(F)c4)c3)cc2)CC1 | 1910 nM | 6920 nM
COc1ccc(/C=C2/C(=O)N(/C=C3\C(=O)Oc4ccccc4C3=O)C(=NC(C)=O)N2C)cc1OC | > 100000 nM | > 100000 nM
CCN(CC)CCC(CNc1c(C)cnc2cc(Cl)ccc12)c1ccc(Cl)c(Cl)c1 (configuration not stated) | 2060 nM | 4640 nM
Nc1n[nH]c2cc(F)c([C@@H]3Nc4c(F)cc5[nH]ncc5c4[C@H]4C5CCC(C5)[C@@H]34)cc12 (some centres not stated) | 86 nM | 250 nM
COc1ncc(-c2ccc3ncnc(Nc4cccc(Cl)c4)c3c2)cc1NS(C)(=O)=O | 211 nM | 913 nM
N#CC1=C(N)Oc2c(ccc3cccnc23)C1c1ccccc1 (configuration not stated) | 270 nM | 916 nM
CS(=O)(=O)Nc1cccc(-c2ccc3ncnc(Nc4cncc(Cl)c4)c3c2)c1 | 133 nM | 550 nM
C=C(C)[C@@H]1CC[C@]2(COC(=O)c3ccccc3C(=O)O)CC[C@]3(C)[C@H](CC[C@@H]4[C@@]5(C)CC[C@H](OC(=O)c6ccccc6C(=O)O)C(C)(C)[C@@H]5CC[C@]43C)[C@@H]12 | 29800 nM | > 100000 nM
Nc1nc(N)c2cc(S(=O)(=O)c3ccccc3)ccc2n1 | 8010 nM | > 100000 nM
CCCCc1n(Cc2ccc3ccccc3n2)cc[n+]1Cc1ccc2ccccc2c1 | 216 nM | 903 nM
C=CC(=O)N1CCC(CNc2ncnc(N)c2-c2ccc(Oc3ccccc3)cc2)CC1 | 7290 nM | 55700 nM

Reference: PubChem BioAssay (NCI)
